# In patent US11123320B2, “Prophylactic or therapeutic agent for hyperaciive bladder” (SBI PHARMACEUTICALS CO., LTD., priority 2017, dated 2021):
# Columns and labels:
# [1] = system: overactive bladder model rats (SHR); experiment: Urination kinetics measurement with a metabolic cage; type: in vivo, rat; conditions: male SHR, vs saline control
# Protocol: Twelve weeks old male SHR (spontaneously hypertension rata) were employed as experimental rats, and the experimental groups were divided into groups I-III by ALA administration conditions below. For experimental group II, ALA and sodium ferrous citrate were orally administered on experiment start day. The dosage of ALA was set at 10 mg/kg of body weight and sodium ferrous citrate was set at 15.7 mg/kg of body weight. On the other hand, for experimental group III, ALA was set at 100 mg/kg of body weight and sodium ferrous citrate was set at 157 mg/kg of body weight. Note that for control group I, saline only at an amount equal to ALA was administered instead of ALA and sodium ferrous citrate.
# For control group I, saline was orally administered every day from experiment start day (12 weeks old) to week 6 (18 weeks old).
# For experimental groups II and III, ALA and sodium ferrous citrate was orally administered every day from experiment start day (12 weeks old) to week 6 (18 weeks old).
# For each experimental group, urination kinetics measurement with a metabolic cage was performed. Specifically, measurements were performed at 12 weeks old (before ALA administration) and at 18 weeks old (after ALA administration) to measure single urination amount, 24-hour urination amount, and water drinking amount. Here, the method based on Yono et al., Life Sci. 2007 Jun. 27; 81(3):218-222 (non-anesthetized, unrestrained, and day-and-night continuous measurement method of mouse urination function) was adopted as the measurement method with a metabolic cage. Note that before measurement of urination kinetics, body weight, blood pressure, and heart rate were measured as a caution in addition to the urination amount and water drinking amount. Moreover, when measuring urination kinetics, total number of urination was also measured.
# MDA (Malondialdehyde) = experiment: MDA assay in rat bladder tissue; type: in vivo; conditions: male SHR, oral ALA with sodium ferrous citrate as in Example 1; vs control group
# Protocol: ALA administration to a subject and the change in the amount of MDA expression was investigated. MDA is one of lipid peroxidative degradation products, and is known as a major marker of lipid peroxidation.
# (§1) Preparation of the experimental and control groups was carried out with the method and conditions similar to the method described in Example 1.
# (§2) The bladder tissue of experimental and control groups were processed with the procedure below, and used as samples.
# 1. Subject to biomasher with 400 μl of cold assay buffer.
# 2. Centrifuge at 15000 rpm for 5 min at 4° C. After centrifugation, add 300 μl of buffer to the supernatant and store on ice.
# 3. Correct with protein concentration.
# ELISA assay was performed with Malondialdehyde Assay kit (NWK-MDA01) according to the protocol provided by the manufacturer.
# [2] = system: detrusor muscle / bladder of SHR rats; experiment: Cystometry (overactive status of the detrusor muscle); type: in vivo, rat; conditions: 18 weeks old male SHR under urethane anesthesia, after 6 weeks oral ALA 10 or 100 mg/kg with sodium ferrous citrate; vs group without ALA
# Protocol: Note that cystometry verifies the overactive status of the detrusor muscle, and is established as a method for examining overactive bladder. (1) 18 weeks old male SHR/Hos rats and Wistar/ST rat are subjected to general anesthesia by urethane (1.0 g/kg, i.p.). (2) Each rat is laid down and the extremities are fixed with packaging tape. Laparotomy is then performed, and the bladder is pressed to allow urination. Absorbent cotton with saline is placed on top to prevent drying and left for 30 minutes. (3) A catheter for cystometry is inserted into the bladder of each rat. Here, the catheter is joined to a three-way stopcock, and one end is connected to a syringe pump to continuously infuse saline into the bladder at a constant speed (12 ml/hr). The other end is connected to a pressure transducer to monitor and amplify with a pressure amplifier, and incorporated into a personal computer via Powerlab system for recording. (4) Saline is then infused and left for about 30 minutes until stable. (5) Watch the wave form to collect single urine into a 1.5 ml tube, and the weight of urine is measured. (6) Residual urine of each rat is collected and the amount is measured. (7) Peaks at similar interval and height are consecutively taken 6 times (about 1 hour).
# VEGF = VEGF ELISA in rat bladder tissue; type: in vivo; conditions: male SHR, oral ALA with sodium ferrous citrate as in Example 1, vs control group
# Protocol: ALA administration to a subject and the change in the amount of VEGF expression was investigated. VEGF is a vascular endothelial growth factor, and is used as a marker of bladder vascular endothelial dysfunction.
# as §1, §2
# 1. Wash 100 mg of tissue with 1×[…].
# 2. Homogenize with 500 μl of 1×PBS.
# (§3) 3. Store overnight at −20° C.
# (§4) 4. Carry out freeze-thawing to destroy cell membrane, and centrifuge at 5000 G for 5 min at 4° C.
# (§5) 5. Dispense and store at −20° C. or −80° C.
# (§6) 6. After thawing, centrifuge again and employ for assay.
# ELISA assay was performed with Rat VEGF ELISA kit (CUSABIO CSB-E04757r) according to the protocol provided by the manufacturer.
# NGF = NGF ELISA in rat bladder tissue; type: in vivo; conditions: male SHR, oral ALA with sodium ferrous citrate as in Example 1, vs control group
# Protocol: ALA administration to a subject and the change in the amount of NGF expression was investigated. Since micturition reflex is enhanced when NGF increases in the bladder thus resulting in overactive bladder, NGF is employed as a lower urinary tract dysfunction marker.
# as §1, §2
# 1. Wash 100 mg of tissue with 1×PBS.
# 2. Homogenize with 1 ml of 1×PBS.
# as §3, §4, §5, §6
# ELISA assay was performed with Rat NGF ELISA kit (CUSABIO CSB-E24685r) according to the protocol provided by the manufacturer.
# Nrf2 = Nrf2 ELISA in rat bladder tissue; type: in vivo; conditions: male SHR, oral ALA with sodium ferrous citrate as in Example 1, vs control group
# Protocol: ALA administration to a subject and the change in the amount of Nrf2 expression was investigated. Nrf2 is one of transcription factors that regulate the expression of antioxidant enzymes or detoxication metabolism enzymes to control oxidative stress, and is employed as an oxidative stress marker.
# as §1, §2
# 1. Wash excess blood with PBS.
# 3. Place 600 μl of PBS on ice in a biomasher to finely mince tissue.
# 4. Perform ultrasonic wave treatment or freeze-thawing (−20° C./room temperature) 3 times.
# 5. Centrifuge at 5000 G for 5 minutes.
# 6. Move the supernatant to a new tube (measure protein concentration).
# ELISA assay was performed with Rat NFE2L2/NRF2 ELISA kit (LSBio LS-F12145) according to the protocol provided by the manufacturer.
# [3] = system: bladder blood flow of SHR rats; experiment: Bladder blood flow measurement (hydrogen clearance method); type: in vivo, rat; conditions: male SHR after 6 weeks oral ALA 10 or 100 mg/kg with sodium ferrous citrate, vs control
# Protocol: After said cystometry, bladder blood flow measurement (hydrogen clearance method) was performed according to the procedures below. (1) A silver chloride plate which is an indifferent electrode is buried under the precordium of each rat. (2) Wire platinum electrodes are incised into the bladder wall (three places in the bladder wall, data is collected 3 times each). (3) Blood flow is measured using UH-METER. Specifically, a hydrogen tank is opened to 0.3 L/min, and 100% hydrogen is directly inhaled with a funnel. Hydrogen is given until peaked, and hydrogen clearance curve is measured with the PowerLab system. The timepoint when the hydrogen clearance curve begins to drop is set at 0 second, and recording was performed for about 180 seconds. (4) The blood flow amount was calculated from the regression curve. * Half-life (T½) is determined from the regression curve Y=B−AX.
# [4] = ALA 10 or 100 mg/kg with sodium ferrous citrate orally every day for 6 weeks
structure (smiles),measurement,setting,value
"NCC(=O)CCC(=O)O [ALA, 5-aminolevulinic acid]",increase in single urination amount compared to the control group,"[1]; ALA 10 or 100 mg/kg with sodium ferrous citrate 15.7 or 157 mg/kg orally every day for 6 weeks, measured at 18 weeks old",approximately 30%
same,24-hour urination amount compared to the control group,[1]; [4],increase in 24-hour urination amount
same,24-hour water drinking amount,[1]; [4],increase in water drinking amount
same,amount of MDA expression in bladder tissue,MDA (Malondialdehyde),significantly reduced
same,urination interval (cystometry),[2],extension of urination interval
same,amount of VEGF expression in bladder tissue,VEGF,significantly reduced
same,amount of NGF expression in bladder tissue,NGF,significantly reduced
same,amount of Nrf2 expression in bladder tissue,Nrf2,significantly reduced
same,bladder blood flow amount,[3],tendency of bladder blood flow to increase ALA dosage-dependently
